Data as given in US4107424A, “1-N-[(S)-α-hydroxy-ω-aminoacyl] derivatives of 3',4'-dideoxykanamycin B and 3'-deoxykanamycin B antibiotics” (Zaidan Hojin Biseibutsu Kagaku Kenkyu Kai, priority 1972, dated 1978).
≈ marks a conversion by molar mass, not a printed value. Read-outs that look alike come from different tables or passages of the source.

What was measured:
[1] = tested on: kanamycin-resistant strains; conditions: strains producing 3'-hydroxyl phosphorylating enzyme; cited from earlier work
[2] = tested on: Escherichia coli K-12 LA 290 R 55; test: Minimal inhibitory concentration, agar dilution streak method; assay type: cell-based; conditions: 18 h
Procedure: (§1) *Agar Agar dilution streak method (nutrient agar, 37° C, 18 hours)
(§2) *Agar dilution streak method (nutrient agar, 37° C, 18 hours).

[3] = tested on: Escherichia coli K-12 ML 1629; test: as above; assay type: cell-based; conditions: K12ML1629, nutrient agar, 37° C, 18 hours
Procedure: as §1, §2

[4] = tested on: Escherichia coli K-12 JR 66/W 677; test: as above; assay type: cell-based; conditions: Escherichia coli, 18 h
Procedure: as §1, §2

[5] = tested on: Pseudomonas aeruginosa GN 315; test: as above; assay type: cell-based; conditions: GN315, nutrient agar, 37° C, 18 hours
Procedure: as §1, §2

[6] = tested on: Mycobacterium smegmatis ATCC 607; test: as above; assay type: cell-based; conditions: Mycolicibacterium smegmatis, ATCC607; nutrient agar, 37° C, 48 hours; read-out: Minimal inhibitory concentration
[7] = tested on: Klebsiella pneumoniae PCI 602; test: as above; assay type: cell-based; conditions: PCI602, nutrient agar, 37° C, 18 hours
Procedure: (§3) [α]D^22 + 38°, (c 0.85, water).
as §1, §2

Sarcina lutea PCI 1001 = test: as above; assay type: cell-based; conditions: Micrococcus luteus, PCI1001; nutrient agar, 37° C, 18 hours; read-out: Minimal inhibitory concentration
Procedure: as §3, §1, §2

[8] = tested on: Pseudomonas aeruginosa 99; test: as above; assay type: cell-based; conditions: nutrient agar, 37° C, 18 hours, read-out: Minimal inhibitory concentration
Procedure: as §3, §1, §2

Proteus rettgeri GN 311 = test: as above; assay type: cell-based; conditions: Providencia rettgeri, GN311; nutrient agar, 37° C, 18 hours
Procedure: as §3, §1, §2

[9] = tested on: Escherichia coli K-12 R-5; test: as above; assay type: cell-based; conditions: K12R5, nutrient agar, 37° C, 18 hours
Procedure: as §3, §1, §2

Salmonella typhosa T-63 = test: as above; assay type: cell-based; conditions: Salmonella enterica, nutrient agar, 37° C, 18 hours
Procedure: as §3, §1, §2

[10] = tested on: Escherichia coli J 5 R 11-2; test: as above; assay type: cell-based; conditions: J5R112, 18 h, read-out: Minimal inhibitory concentration
Procedure: as §3, §1, §2

Proteus rettgeri GN 466 = test: as above; assay type: cell-based; conditions: Providencia rettgeri, GN466; nutrient agar, 37° C, 18 hours
Procedure: as §3, §1, §2

[11] = tested on: Escherichia coli K-12 C 600 R 135; test: as above; assay type: cell-based; conditions: 18 h, read-out: Minimal inhibitory concentration
Procedure: as §3, §1, §2

Escherichia coli NIHJ = test: as above; assay type: cell-based; conditions: nutrient agar, 37° C, 18 hours
Procedure: as §3, §1, §2

[12] = tested on: Bacillus subtilis NRRL B-558; test: as above; assay type: cell-based; conditions: NRRLB558, nutrient agar, 37° C, 18 hours
Procedure: as §3, §1, §2

[13] = tested on: Pseudomonas aeruginosa TI-13; test: as above; assay type: cell-based; conditions: TI13, nutrient agar, 37° C, 18 hours, read-out: Minimal inhibitory concentration
Procedure: as §1, §2

[14] = tested on: Escherichia coli K-12 ML 1410 R 81; test: as above; assay type: cell-based; conditions: 18 h, read-out: Minimal inhibitory concentration
Procedure: as §1, §2

[15] = tested on: Escherichia coli K-12 W 677; test: as above; assay type: cell-based; conditions: K12W677, nutrient agar, 37° C, 18 hours, read-out: Minimal inhibitory concentration
Procedure: as §1, §2

[16] = tested on: Escherichia coli K-12 ML 1410; test: as above; assay type: cell-based; conditions: K12ML1410, nutrient agar, 37° C, 18 hours, read-out: Minimal inhibitory concentration
Procedure: as §1, §2

Escherichia coli K-12 = test: as above; assay type: cell-based; conditions: K12, nutrient agar, 37° C, 18 hours, read-out: Minimal inhibitory concentration
Procedure: as §1, §2

[17] = tested on: Klebsiella pneumoniae type 22 #3038; test: as above; assay type: cell-based; conditions: Klebsiella pneumoniae; nutrient agar, 37° C, 18 hours
Procedure: as §1, §2

[18] = tested on: Escherichia coli K-12 LA 290 R 64; test: as above; assay type: cell-based; conditions: nutrient agar, 37° C, 18 hours, read-out: Minimal inhibitory concentration
Procedure: as §1, §2

[19] = tested on: Escherichia coli K-12 LA 290 R 56; test: as above; assay type: cell-based; conditions: 18 h, read-out: Minimal inhibitory concentration
Procedure: as §1, §2

[20] = tested on: Escherichia coli K-12 ML 1630; test: as above; assay type: cell-based; conditions: K12ML1630, nutrient agar, 37° C, 18 hours, read-out: Minimal inhibitory concentration
Procedure: as §1, §2

[21] = tested on: Pseudomonas aeruginosa A 3; test: as above; assay type: cell-based; conditions: A3, nutrient agar, 37° C, 18 hours, read-out: Minimal inhibitory concentration
Procedure: as §1, §2

[22] = tested on: Pseudomonas aeruginosa No.12; test: as above; assay type: cell-based; conditions: nutrient agar, 37° C, 18 hours, read-out: Minimal inhibitory concentration
Procedure: as §1, §2

[23] = tested on: Staphylococcus aureus FDA 209P; test: as above; assay type: cell-based; conditions: FDA209P, nutrient agar, 37° C, 18 hours, read-out: Minimal inhibitory concentration
Procedure: as §1, §2

mice = test: Acute intravenous toxicity (LD50) in mice; conditions: in words
in vivo = conditions: mouse, iv
[24] = tested on: gram-positive and gram-negative bacteria; test: Antibacterial activity (in words); assay type: cell-based
Procedure: as §3

[25] = read-out: minimum inhibitory concentrations
[26] = drug-resistant strain, read-out: minimum inhibitory concentrations
[27] = read-out: Minimal inhibitory concentration

Row | SMILES | MIC [6] [µg/mL] | MIC [7] [µg/mL] | MIC (Sarcina lutea PCI 1001) [µg/mL] | MIC [8] [µg/mL] | MIC (Proteus rettgeri GN 311) [µg/mL] | MIC [9] [µg/mL] | MIC (Salmonella typhosa T-63) [µg/mL] | MIC [10] [µg/mL] | MIC (Proteus rettgeri GN 466) [µg/mL] | MIC [11] [µg/mL] | MIC (Escherichia coli NIHJ) [µg/mL] | MIC [12] [µg/mL] | MIC [2, 27] [µg/mL] | MIC [13] [µg/mL] | MIC [15] [µg/mL] | MIC [17] [µg/mL] | MIC [18] [µg/mL] | MIC [3, 27] [µg/mL] | MIC [19] [µg/mL] | MIC [4, 27] [µg/mL] | other results
1 | NC[C@H]1O[C@H](O[C@H]2[C@H](O)[C@@H](O)[C@H](N)C[C@@H]2N)[C@H](N)C[C@@H]1O [3'-deoxyneamine] | – | – | – | – | – | – | – | – | – | – | – | – | – | – | – | – | – | – | – | – | activity against kanamycin-resistant strains [1]: actually effective; MIC [2, 25]: 100 µg/mL (≈ 326 µM); MIC [3, 26]: 6.25 µg/mL (≈ 20.4 µM); MIC [4, 25]: > 100 µg/mL; MIC [5, 26]: > 100 µg/mL
2 | NC[C@@H]1CC[C@@H](N)[C@@H](O[C@H]2[C@H](O)[C@@H](O)[C@H](N)C[C@@H]2N)O1 [3',4'-dideoxyneamine] | 25 (≈ 86.1 µM) | 25 (≈ 86.1 µM) | 50 (≈ 172 µM) | 50 (≈ 172 µM) | 50 (≈ 172 µM) | 50 (≈ 172 µM) | 3.12 (≈ 10.7 µM) | 6.25 (≈ 21.5 µM) | 25 (≈ 86.1 µM) | 12.5 (≈ 43 µM) | 12.5 (≈ 43 µM) | 0.39 (≈ 1.34 µM) | 6.25 (≈ 21.5 µM) | 25 (≈ 86.1 µM) | 6.25 (≈ 21.5 µM) | 25 (≈ 86.1 µM) | 12.5 (≈ 43 µM) | 12.5 (≈ 43 µM) | 6.25 (≈ 21.5 µM) | 25 (≈ 86.1 µM) | activity against kanamycin-resistant strains [1]: actually effective; MIC [14]: 25 µg/mL (≈ 86.1 µM); MIC [16]: 6.25 µg/mL (≈ 21.5 µM); MIC (Escherichia coli K-12): 6.25 µg/mL (≈ 21.5 µM); MIC [20]: 12.5 µg/mL (≈ 43 µM); MIC [21]: 25 µg/mL (≈ 86.1 µM); MIC [5, 27]: > 100 µg/mL; MIC [22]: 25 µg/mL (≈ 86.1 µM); MIC [23]: 6.25 µg/mL (≈ 21.5 µM)
3 | NC[C@H]1O[C@H](O[C@H]2[C@H](O[C@@H]3O[C@H](CO)[C@@H](O)[C@H]3O)[C@@H](O)[C@H](N)C[C@@H]2N)[C@H](N)[C@@H](O)[C@@H]1O [Ribostamycin, 5-0-β-D-ribofuranosyl-neamine] | 6.25 (≈ 13.8 µM) | 1.56 (≈ 3.43 µM) | 100 (≈ 220 µM) | > 100 | 12.5 (≈ 27.5 µM) | 50 (≈ 110 µM) | 1.56 (≈ 3.43 µM) | > 100 | 6.25 (≈ 13.8 µM) | 1.56 (≈ 3.43 µM) | 6.25 (≈ 13.8 µM) | 3.12 (≈ 6.87 µM) | 3.12 (≈ 6.87 µM) | > 100 | 1.56 (≈ 3.43 µM) | > 100 | 1.56 (≈ 3.43 µM) | > 100 | 3.12 (≈ 6.87 µM) | > 100 | MIC [14]: > 100 µg/mL; MIC [16]: 3.12 µg/mL (≈ 6.87 µM); MIC (Escherichia coli K-12): 3.12 µg/mL (≈ 6.87 µM); MIC [20]: > 100 µg/mL; MIC [21]: > 100 µg/mL; MIC [5, 27]: > 100 µg/mL; MIC [22]: > 100 µg/mL; MIC [23]: 3.12 µg/mL (≈ 6.87 µM)
4 | NCC[C@H](O)C(=O)N[C@@H]1C[C@H](N)[C@@H](O[C@H]2O[C@H](CN)CC[C@H]2N)[C@H](O)[C@H]1O [AHB-dideoxyneamine, 1-N-[(S)-4-amino-2-hydroxybutyryl]-3',4'-dideoxyneamine] | 6.25 (≈ 16 µM) | 6.25 (≈ 16 µM) | 25 (≈ 63.9 µM) | 25 (≈ 63.9 µM) | 25 (≈ 63.9 µM) | 50 (≈ 128 µM) | 1.56 (≈ 3.98 µM) | 6.25 (≈ 16 µM) | 12.5 (≈ 31.9 µM) | 12.5 (≈ 31.9 µM) | 3.12 (≈ 7.97 µM) | < 0.39 | 3.12 (≈ 7.97 µM) | 6.25 (≈ 16 µM) | 3.12 (≈ 7.97 µM) | 12.5 (≈ 31.9 µM) | 3.12 (≈ 7.97 µM) | 3.12 (≈ 7.97 µM) | 3.12 (≈ 7.97 µM) | 12.5 (≈ 31.9 µM) | toxicity (mice): lower toxicity to animals and men; LD50 (in vivo): > 100 mg/kg; antibacterial activity compared with parent or reference substance ([24]; sensitive (and resistant) bacteria): higher antibacterial activity than that of the parent substance, 3',4'-dideoxyneamine, against both sensitive and resistant bacteria; antibacterial activity ([24]; various gram-positive and gram-negative bacteria, including resistant strains): exhibits a antibacterial activity against various gram-positive and gram-negative bacteria, including the kanamycin-resistant strains; MIC [20]: 3.12 µg/mL (≈ 7.97 µM); MIC [21]: 6.25 µg/mL (≈ 16 µM); MIC [5, 27]: > 100 µg/mL; MIC [22]: 6.25 µg/mL (≈ 16 µM)
